Assays:
Format in all cases: physicochemical
[1] = Solubility testing in sodium phosphate buffer; conditions: thermodynamic from solid; aqueous buffer, 0.02 molar dibasic sodium phosphate; sonicated, undissolved solid weighed
Experimental: Compounds of Formulas I and II, prepared as described in the examples above, were tested to determine their solubility in a sodium phosphate buffer.
An aqueous buffer solution comprising 0.02 molar dibasic sodium phosphate was prepared. A weighted amount of solid was sonicated in the buffer, and then centrifuged to collect the undissolved material. The undissolved solid was dried in vacuuo and weighed. The mass of the undissolved portion was then used to calculate the mass that was successfully dissolved in the known volume of buffer.

[2] = Solution stability in aqueous sodium phosphate buffer (visual, photographs); conditions: for appearance of solution after storage: 11 mg in 5 ml 0.02 molar dibasic sodium phosphate buffer, ambient temperature, 3 days
Experimental: An aqueous buffer solution comprising 0.02 molar dibasic sodium phosphate was prepared. An 11 mg sample of 5-glyoxyliminosalicylic acid (Formula Ia-i) was added to a vial containing 5 ml of the buffer solution. […] Both vials were stored at ambient temperature.

[3] = In vitro testing: mesalamine (5-ASA) evolution from 5-glyoxyliminosalicylic acid in buffered saline, by HPLC
Experimental: The vial was held at ambient temperature for 22.75 hours and sampled. […] No other peaks were present.
Without being bound to a particular theory, it is believed that for 5-glyoxyliminosalicylic acid, the presence of chloride greatly increases the rate of mesalamine evolution.

[4] = In vitro testing: decomposition to 5-ASA in phosphate buffer (pH 6.5), by infusion MS and LCMS; conditions: 10 mg in 10 ml phosphate buffer (pH 6.5) overnight
Experimental: 10 mg of 5-ethylglyoxyliminosalicylic acid (prepared as described in Example 4 above) was stored in 10 ml phosphate buffer (pH 6.5) overnight.

| solubility [1] [mg/mL] | SMILES | also measured |
| --- | --- | --- |
| 3.45 | COc1cc(/C=N\c2ccc(O)c(C(=O)O)c2)ccc1O [Formula IIa-i, 5-vanilliniminosalicylic acid] |  |
| 7.35 | COc1cc(/C=N\c2ccc(C(=O)O)c(O)c2)ccc1O [Formula IIb-i, 4-vanilliniminosalicylic acid] |  |
| 11 | O=C(O)/C=N\c1ccc(O)c(C(=O)O)c1 [Formula Ia-i, 5-glyoxyliminosalicylic acid] | appearance of solution after storage [2]: still clear and lightly colored; storage stability relative to mesalazine ([2]; dissolved in aqueous sodium phosphate buffer, 3 days ambient): significantly greater degree of storage stability than mesalazine; percentage of 5-aminosalicylic acid by HPLC ([3]; 12 mg compound + 12 mg 5-aminosalicylic acid in 6 ml buffered saline, ambient temperature, 22.75 hours, no other peaks): 87%; mesalamine evolution ([3]; same experiment in the absence of saline): very little mesalamine evolution |
| 0.13 | CCOC(=O)/C=N\c1ccc(O)c(C(=O)OCC)c1 [Formula Ia-ii, ethyl 5-ethylglyoxyliminosalicylate] |  |
| 12 | CCOC(=O)/C=N\c1ccc(O)c(C(=O)O)c1 [Formula Ia-iii, 5-ethylglyoxyliminosalicylic acid] | decomposed to 5-ASA (LCMS, single ion monitoring) [4]: ~90%; decomposition to release 5-ASA (infusion MS) [4]: partially decomposed |
| 17.3 | O=C(O)/C=N/c1ccc(C(=O)O)c(O)c1 [Formula Ib-i, 4-glyoxyliminosalicylic acid] |  |
| 10.2 | CCOC(=O)C=Nc1ccc(C(=O)O)c(O)c1 [Formula Ib-ii, 4-ethylgloxyliminosalicylic acid] |  |
|  | Nc1ccc(O)c(C(=O)O)c1 [Mesalazine, 5-aminosalicylic acid, reference compound] | appearance of solution after storage [2]: turned a dark brown color, and a significant amount of brown solid material precipitated |

— patent US10100005B1 (Eclipse Therapeutics, LLC, priority 2017, dated 2018)
